These results are taken from US7491819B1 (priority 2004, dated 2009).

In the experiment the target is T1, HIV-integrase (Human immunodeficiency virus type 1 group M subtype B, UniProt P12497).
T1 construct: Recombinant integrase (0.26 ng) was incubated with the beads
Kind of experiment: HIV-Integrase Inhibition Activity (SPA bead strand-transfer assay). The note with it: Table 1; read-out: Activity (HIV-integrase inhibition, IC50 class). The class given is biochemical. In outline:
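Biotin-labelled substrate DNA (5 pmole) bound to streptavidin SPA beads, preloaded with recombinant integrase (0.26 ng) for 90 min at 37° C, then washed. Inhibitors and 0.1 fmol P33-labelled target DNA added; reaction stopped with 10 mM EDTA. Integration read as scintillation CPM.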
Take `CC1(C)OCCn2c1nc(C(=O)NCc1cc(F)cc(C(F)(F)F)c1)c(O)c2=O` [Example 237, Pyrimido[2,1-c][1,4]oxazine-2-carboxamide, N-[[3-fluoro-5-(trifluoromethyl)phenyl]methyl]-4,6,7,9-tetrahydro-3-hydroxy-9,9-dimethyl-4-oxo-]: the IC50 (as a rule, the concentration that gives 50% inhibition) lay within 2 to 100 nM.

`CC1(C)OCCn2c1nc(C(=O)NCc1cccc(F)c1F)c(O)c2=O` [Example 238, Pyrimido[2,1-c][1,4]oxazine-2-carboxamide, N-[(2,3-difluorophenyl)methyl]-4,6,7,9-tetrahydro-3-hydroxy-9,9-dimethyl-4-oxo-]: the half-maximal inhibitory concentration (IC50) fell in the range of 2 to 100 nM.

`COc1ccc(CNC(=O)c2nc3n(c(=O)c2O)CCOC3(C)C)cc1Cl` [Example 239, Pyrimido[2,1-c][1,4]oxazine-2-carboxamide, N-[(3-chloro-4-methoxyphenyl)methyl]-4,6,7,9-tetrahydro-3-hydroxy-9,9-dimethyl-4-oxo-]: the half-inhibitory concentration (IC50) lay within 2 to 100 nM.

On to `Cc1ccc(CNC(=O)c2nc3n(c(=O)c2O)CCOC3(C)C)cc1` [Example 240, Pyrimido[2,1-c][1,4]oxazine-2-carboxamide, 4,6,7,9-tetrahydro-3-hydroxy-9,9-dimethyl-N-[(4-methylphenyl)methyl]-4-oxo-], for which the IC50 was in the range of 2 to 100 nM.

`CC1(C)OCCn2c1nc(C(=O)NCc1ccc(F)c(C(F)(F)F)c1)c(O)c2=O` [Example 241, Pyrimido[2,1-c][1,4]oxazine-2-carboxamide, N-[[4-fluoro-3-(trifluoromethyl)phenyl]methyl]-4,6,7,9-tetrahydro-3-hydroxy-9,9-dimethyl-4-oxo-]: the 50% inhibitory concentration (IC50) fell in the range of 2 to 100 nM.

On to `COc1ccccc1CNC(=O)c1nc2n(c(=O)c1O)CCOC2(C)C` [Example 242, Pyrimido[2,1-c][1,4]oxazine-2-carboxamide, 4,6,7,9-tetrahydro-3-hydroxy-N-[(2-methoxyphenyl)methyl]-9,9-dimethyl-4-oxo-], for which the IC50 lay within 2 to 100 nM.

Regarding `CCOc1ccccc1CNC(=O)c1nc2n(c(=O)c1O)CCOC2(C)C` [Example 243, Pyrimido[2,1-c][1,4]oxazine-2-carboxamide, N-[(2-ethoxyphenyl)methyl]-4,6,7,9-tetrahydro-3-hydroxy-9,9-dimethyl-4-oxo-], the IC50 lay in the range of 2 to 100 nM.

Consider `COc1ccc(CNC(=O)c2nc3n(c(=O)c2O)CCOC3(C)C)cc1` [Example 244, Pyrimido[2,1-c][1,4]oxazine-2-carboxamide, 4,6,7,9-tetrahydro-3-hydroxy-N-[(4-methoxyphenyl)methyl]-9,9-dimethyl-4-oxo-], for which the 50% inhibitory concentration (IC50) is 2 to 100 nM.

Regarding `COc1cc(CNC(=O)c2nc3n(c(=O)c2O)CCOC3(C)C)ccc1F` [Example 245, Pyrimido[2,1-c][1,4]oxazine-2-carboxamide, N-[(4-fluoro-3-methoxyphenyl)methyl]-4,6,7,9-tetrahydro-3-hydroxy-9,9-dimethyl-4-oxo-], the IC50 was in the range of 2 to 100 nM.

As to `CC1(C)OCCn2c1nc(C(=O)NCc1ccc(F)cc1C(F)(F)F)c(O)c2=O` [Example 246, Pyrimido[2,1-c][1,4]oxazine-2-carboxamide, N-[[4-fluoro-2-(trifluoromethyl)phenyl]methyl]-4,6,7,9-tetrahydro-3-hydroxy-9,9-dimethyl-4-oxo-], the IC50 was 2 to 100 nM.

Consider `CCc1cc(CNC(=O)c2nc3n(c(=O)c2O)CCOC3(C)C)ccc1F` [Example 247, Pyrimido[2,1-c][1,4]oxazine-2-carboxamide, N-[(3-ethyl-4-fluorophenyl)methyl]-4,6,7,9-tetrahydro-3-hydroxy-9,9-dimethyl-4-oxo-], for which the IC50 is 2 to 100 nM.

Regarding `Cc1ccc(CNC(=O)c2nc3n(c(=O)c2O)CCOC3(C)C)cc1F` [Example 248, Pyrimido[2,1-c][1,4]oxazine-2-carboxamide, N-[(3-fluoro-4-methylphenyl)methyl]-4,6,7,9-tetrahydro-3-hydroxy-9,9-dimethyl-4-oxo-], the 50% inhibitory concentration (IC50) was 2 to 100 nM.

As for `CCOc1cccc(CNC(=O)c2nc3n(c(=O)c2O)CCOC3(C)C)c1` [Example 249, Pyrimido[2,1-c][1,4]oxazine-2-carboxamide, N-[(3-ethoxyphenyl)methyl]-4,6,7,9-tetrahydro-3-hydroxy-9,9-dimethyl-4-oxo-], the IC50 is 2 to 100 nM.

Consider `CC1(C)OCCn2c1nc(C(=O)NCc1ccc3c(c1)CCO3)c(O)c2=O` [Example 250, Pyrimido[2,1-c][1,4]oxazine-2-carboxamide, N-[(2,3-dihydro-5-benzofuranyl)methyl]-4,6,7,9-tetrahydro-3-hydroxy-9,9-dimethyl-4-oxo-], for which the concentration for half-maximal inhibition (IC50) was 2 to 100 nM.

In the case of `Cc1ccc(Cl)cc1CNC(=O)c1nc2n(c(=O)c1O)CCOC2(C)C` [Example 251, Pyrimido[2,1-c][1,4]oxazine-2-carboxamide, N-[(5-chloro-2-methylphenyl)methyl]-4,6,7,9-tetrahydro-3-hydroxy-9,9-dimethyl-4-oxo-], the IC50 lay within 2 to 100 nM.

Take `CC1(C)OCCn2c1nc(C(=O)NCc1cccc(-n3cccn3)c1)c(O)c2=O` [Example 252, Pyrimido[2,1-c][1,4]oxazine-2-carboxamide, 4,6,7,9-tetrahydro-3-hydroxy-9,9-dimethyl-4-oxo-N-[[3-(1H-pyrazol-1-yl)phenyl]methyl]-]: the IC50 was in the range of 100 to 1000 nM.

For the molecule `CC1(C)OCCn2c1nc(C(=O)NCc1ccc(N3CCOCC3)cc1)c(O)c2=O` [Example 253, Pyrimido[2,1-c][1,4]oxazine-2-carboxamide, 4,6,7,9-tetrahydro-3-hydroxy-9,9-dimethyl-N-[[4-(4-morpholinyl)phenyl]methyl]-4-oxo-], the IC50 is more than 1000 nM.

Turning to `CC1(C)OCCn2c1nc(C(=O)NCc1ccccc1N1CCCCC1)c(O)c2=O` [Example 254, Pyrimido[2,1-c][1,4]oxazine-2-carboxamide, 4,6,7,9-tetrahydro-3-hydroxy-9,9-dimethyl-4-oxo-N-[[2-(1-piperidinyl)phenyl]methyl]-], the IC50 lay within 2 to 100 nM.

`CC1(C)OCCn2c1nc(C(=O)NCc1ccccc1N)c(O)c2=O` [Example 255, Pyrimido[2,1-c][1,4]oxazine-2-carboxamide, N-[(2-aminophenyl)methyl]-4,6,7,9-tetrahydro-3-hydroxy-9,9-dimethyl-4-oxo-]: the IC50 is 2 to 100 nM.

For `CC1(C)OCCn2c1nc(C(=O)NCc1ccc(N)cc1)c(O)c2=O` [Example 256, Pyrimido[2,1-c][1,4]oxazine-2-carboxamide, N-[(4-aminophenyl)methyl]-4,6,7,9-tetrahydro-3-hydroxy-9,9-dimethyl-4-oxo-], the IC50 lay within 100 to 1000 nM.

For the molecule `CN(C)c1ccc(CNC(=O)c2nc3n(c(=O)c2O)CCOC3(C)C)cc1` [Example 257, Pyrimido[2,1-c][1,4]oxazine-2-carboxamide, N-[[4-(dimethylamino)phenyl]methyl]-4,6,7,9-tetrahydro-3-hydroxy-9,9-dimethyl-4-oxo-], the half-maximal inhibitory concentration (IC50) was in the range of 2 to 100 nM.

As to `CC1(C)OCCn2c1nc(C(=O)NCc1ccccc1O)c(O)c2=O` [Example 258, Pyrimido[2,1-c][1,4]oxazine-2-carboxamide, 4,6,7,9-tetrahydro-3-hydroxy-N-[(2-hydroxyphenyl)methyl]-9,9-dimethyl-4-oxo-], the IC50 lay in the range of 2 to 100 nM.

As to `CC1(C)OCCn2c1nc(C(=O)NCc1ccc(O)cc1)c(O)c2=O` [Example 259, Pyrimido[2,1-c][1,4]oxazine-2-carboxamide, 4,6,7,9-tetrahydro-3-hydroxy-N-[(4-hydroxyphenyl)methyl]-9,9-dimethyl-4-oxo-], the IC50 fell in the range of 2 to 100 nM.

For `CC1(C)OCCn2c1nc(C(=O)NCc1ccccc1N1CCOCC1)c(O)c2=O` [Example 260, Pyrimido[2,1-c][1,4]oxazine-2-carboxamide, 4,6,7,9-tetrahydro-3-hydroxy-9,9-dimethyl-N-[[2-(4-morpholinyl)phenyl]methyl]-4-oxo-], the IC50 fell in the range of 2 to 100 nM.

With `CC(C)(C)OC(=O)N1CCN(c2ccccc2CNC(=O)c2nc3n(c(=O)c2O)CCOC3(C)C)CC1` [Example 261, 1-piperazinecarboxylic acid, 4-[2-[[[(4,6,7,9-tetrahydro-3-hydroxy-9,9-dimethyl-4-oxopyrimido[2,1-c][1,4]oxazin-2-yl)carbonyl]amino]methyl]phenyl]-, 1,1-dimethylethyl ester], the 50% inhibitory concentration (IC50) fell in the range of 2 to 100 nM.

Regarding `CC(C)Oc1ccccc1CNC(=O)c1nc2n(c(=O)c1O)CCOC2(C)C` [Example 262, Pyrimido[2,1-c][1,4]oxazine-2-carboxamide, 4,6,7,9-tetrahydro-3-hydroxy-9,9-dimethyl-N-[[2-(1-methylethoxy)phenyl]methyl]-4-oxo-], the IC50 lay within 2 to 100 nM.

With `CC(C)Oc1cccc(CNC(=O)c2nc3n(c(=O)c2O)CCOC3(C)C)c1` [Example 263, Pyrimido[2,1-c][1,4]oxazine-2-carboxamide, 4,6,7,9-tetrahydro-3-hydroxy-9,9-dimethyl-N-[[3-(1-methylethoxy)phenyl]methyl]-4-oxo-], the IC50 fell in the range of 2 to 100 nM.

On to `COC(=O)c1cccc(CNC(=O)c2nc3n(c(=O)c2O)CCOC3(C)C)c1` [Example 264, Benzoic acid, 3-[[[(4,6,7,9-tetrahydro-3-hydroxy-9,9-dimethyl-4-oxopyrimido[2,1-c][1,4]oxazin-2-yl)carbonyl]amino]methyl]-, methyl ester], for which the concentration for half-maximal inhibition (IC50) lay in the range of 2 to 100 nM.

Regarding `CC1(C)OCCn2c1nc(C(=O)NCc1ccc(C#N)cc1)c(O)c2=O` [Example 265, Pyrimido[2,1-c][1,4]oxazine-2-carboxamide, N-[(4-cyanophenyl)methyl]-4,6,7,9-tetrahydro-3-hydroxy-9,9-dimethyl-4-oxo-], the IC50 was in the range of 2 to 100 nM.

`CC1(C)OCCn2c1nc(C(=O)NCc1cccc(Cl)c1F)c(O)c2=O` [Example 266, Pyrimido[2,1-c][1,4]oxazine-2-carboxamide, N-[(3-chloro-2-fluorophenyl)methyl]-4,6,7,9-tetrahydro-3-hydroxy-9,9-dimethyl-4-oxo-]: the IC50 fell in the range of 2 to 100 nM.

For the molecule `CC1(C)OCCn2c1nc(C(=O)NCc1cccc3c1OCCO3)c(O)c2=O` [Example 267, Pyrimido[2,1-c][1,4]oxazine-2-carboxamide, N-[(2,3-dihydro-1,4-benzodioxin-5-yl)methyl]-4,6,7,9-tetrahydro-3-hydroxy-9,9-dimethyl-4-oxo-], the half-maximal inhibitory concentration (IC50) fell in the range of 2 to 100 nM.
